The target of experiment [1] is T1, Serine hydrolase RBBP9 (Homo sapiens, UniProt O75884). The experiment is described as follows: Displacement of fluorophosphate-rhodamine from RBBP9 transfected in human HEK293T cells proteomes at 20 uM after 30 mins by SDS-PAGE gel fluorescence assay. It counts as cell-based. Particulars: HEK-293T.
Target sequence in this assay (O75884 whole entry, looked up): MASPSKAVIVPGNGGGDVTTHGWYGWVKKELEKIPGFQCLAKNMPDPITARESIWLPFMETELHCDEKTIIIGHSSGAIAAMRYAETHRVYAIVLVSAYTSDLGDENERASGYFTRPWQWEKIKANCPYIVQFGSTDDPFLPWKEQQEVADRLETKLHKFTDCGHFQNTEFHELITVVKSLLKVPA
Experiment [2] deals with T1, Serine hydrolase RBBP9. The experiment is described as follows: Displacement of fluorophosphate-rhodamine from RBBP9 transfected in human HEK293T cells proteomes after 30 mins by SDS-PAGE gel fluorescence assay. It counts as cell-based, HEK-293T.
Target sequence in this assay (O75884 whole entry): as the sequence (O75884 whole entry, looked up) above
Experiment [3] deals with T1, Serine hydrolase RBBP9. Briefly: Displacement of fluorophosphate-rhodamine from RBBP9 transfected in human HEK293T cells proteomes at 7.9 uM after 30 mins by SDS-PAGE gel fluorescence assay. Type of experiment: cell-based. Particulars: HEK-293T.
Target sequence in this assay (O75884 whole entry, looked up): as above
In experiment [4] the target is T2, Glutathione S-transferase omega-1 (Homo sapiens) (UniProt P78417).
T2 sequence (whole entry): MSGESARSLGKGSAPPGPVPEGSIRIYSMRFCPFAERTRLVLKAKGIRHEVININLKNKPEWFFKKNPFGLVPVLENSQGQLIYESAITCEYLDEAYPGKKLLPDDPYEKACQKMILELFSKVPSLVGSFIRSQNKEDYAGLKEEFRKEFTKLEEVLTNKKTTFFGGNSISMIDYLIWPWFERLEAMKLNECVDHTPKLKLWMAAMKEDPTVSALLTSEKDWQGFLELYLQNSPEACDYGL
The experiment is described as follows: Displacement of phenylsulphonate-rhodamine from GSTO1 in human MDA-MB-231 cells proteomes at 20 uM after 30 mins by SDS-PAGE gel fluorescence assay. Type of experiment: cell-based.

Experiment [5] has as its target T1, Serine hydrolase RBBP9. Briefly: Displacement of phenylsulphonate-rhodamine from RBBP9 transfected in human MDA-MB-231 cells proteomes after 30 mins by SDS-PAGE gel fluorescence assay. Type of experiment: cell-based.
Target sequence in this assay (O75884 whole entry, looked up): as the sequence (O75884 whole entry, looked up) above
In experiment [6] the target is T1, Serine hydrolase RBBP9. The experiment is described as follows: Displacement of fluorophosphate-rhodamine from recombinant RBBP9 transfected in mouse brain membrane proteomes at 200 uM after 30 mins by SDS-PAGE gel fluorescence assay. It counts as cell membranes.
Target sequence in this assay (O75884 whole entry, looked up): as the sequence (O75884 whole entry, looked up) above
For experiment [7], the target named is T1, Serine hydrolase RBBP9. The experiment is described as follows: Displacement of fluorophosphate-rhodamine from recombinant RBBP9 transfected in mouse brain membrane proteomes after 30 mins by SDS-PAGE gel fluorescence assay. Type of experiment: cell membranes.
Target sequence in this assay (O75884 whole entry): as the sequence (O75884 whole entry, looked up) above

pIC50: −log10 of the molar value. The source made the active and inactive calls. The calls are words filed in the database; no cut-off is given here.

`COc1ccc(C(=O)ON=C2C(C)=CC(=O)C=C2C)cc1` displayed an inhibition at Serine hydrolase RBBP9 [1] of 48%. On the same count and under the same terms, in the case of `C/C(=N\OC(=O)c1ccc(-c2ccccc2)cc1)c1nccs1` it was 4%. On the same count and under the same terms, in the case of `C/C(=N\OC(=O)c1ccccc1)c1nccs1` it was 62%. In the case of `C/C(=N\OC(=O)c1ccc(F)cc1)c1nccs1`, at Serine hydrolase RBBP9 [2], the negative logarithm of the IC50 (pIC50) was 5.24. For the same compound, the inhibition at Serine hydrolase RBBP9 [1] turned out to be 76%. Take `C/C(=N\OC(=O)c1c(-c2c(Cl)cccc2Cl)noc1C)c1nccs1`: the inhibition at Serine hydrolase RBBP9 [1] came to 8%. In turn, `C/C(=N\OC(=O)c1cc(F)ccc1F)c1nccs1` returned an inhibition on Serine hydrolase RBBP9 [1] of 66%. The same measure, in the same setting: with `C/C(=N\OC(=O)c1cccc(Cl)c1)c1nccs1` the figure was 63%; with `C/C(=N\OC(=O)c1ccc([N+](=O)[O-])cc1)c1nccs1`, 15%. As to `CC1=CC(=NOC(=O)/C=C/c2ccccc2)C=C(C)C1=O`, the inhibition on Serine hydrolase RBBP9 [3] was 79%; at Serine hydrolase RBBP9 [1], 78%. In addition, the pIC50 on Serine hydrolase RBBP9 [2] was 5.92. Moreover, in experiment [4], the inhibition entry was “Active”.

Turning to `CC[C@H]1CN2CCc3cc(OC)c(OC)cc3[C@@H]2C[C@@H]1CC1NCCc2cc(OC)c(OC)cc21` (single isomer, unassigned) [EMETINE], on Serine hydrolase RBBP9 [2] (hek-293t), the pIC50 is 5.11. In turn, `C/C(=N\OC(=O)c1c(-c2ccccc2Cl)noc1C)c1nccs1` registered an inhibition at Serine hydrolase RBBP9 [1] of 17%. The same measure, in the same setting: in the case of `C/C(=N\OC(=O)c1cccc(C(F)(F)F)c1)c1nccs1` it was 46%; in that of `C/C(=N\OC(=O)c1ccc(I)cc1)c1nccs1`, 66%. For the compound `C/C(=N\OC(=O)C1CCCCC1)c1nccs1`, the pIC50 at Serine hydrolase RBBP9 [2] was 6.19. On Serine hydrolase RBBP9 [1], this compound yielded an inhibition of 91%. Regarding `COc1ccc(C(=O)O/N=C2/C=C(C)C(=O)C=C2C)cc1`, the inhibition on Serine hydrolase RBBP9 [1] was 76%.

At Serine hydrolase RBBP9 [1], `C#CCCC(=O)O/N=C(\C)c1nccs1` yielded an inhibition of 42%. Same read-out and setting: with `C/C(=N\OC(=O)c1ccccc1F)c1nccs1` the figure was 64%. Take `COc1ccc(C(=O)O/N=C(\C)c2nccs2)cc1`: the figures for the inhibition at Serine hydrolase RBBP9 [3] and on Serine hydrolase RBBP9 [1] were 39% and 60%, respectively. At Serine hydrolase RBBP9 [2], the pIC50 was 5.04. Further, the inhibition entry on Serine hydrolase RBBP9 [5] is “inactive”. `C/C(=N\OC(=O)N1CCCCC1)c1nccs1`: at Serine hydrolase RBBP9 [1], the inhibition stood at 0%. Regarding `C/C(=N\OC(=O)c1ccc(Cl)cc1)c1nccs1`, the figures for the inhibition on Serine hydrolase RBBP9 [3] and at Serine hydrolase RBBP9 [1] were 80% and 78%, respectively. The negative logarithm of the IC50 (pIC50) on Serine hydrolase RBBP9 [2] was 5.72. Moreover, the outcome at Serine hydrolase RBBP9 [6] was inactive. Also, on Serine hydrolase RBBP9 [5], the inhibition result was “inactive”.

In the case of `C/C(=N\OC(=O)c1c(-c2c(F)cccc2Cl)noc1C)c1nccs1`, at Serine hydrolase RBBP9 [1], the inhibition came to 14%. As to `CC(=O)O/N=C(\C)c1nccs1`, the inhibition at Serine hydrolase RBBP9 [1] is 0%. Regarding `COc1ccc(C(=O)ON=C2C=C(C)C(=O)C(C)=C2)cc1`, the negative-log IC50 (pIC50) on Serine hydrolase RBBP9 [7] and on Serine hydrolase RBBP9 [2] was 5.82 in each case. The compound further gave an inhibition on Serine hydrolase RBBP9 [1] of 93%.

Regarding `C/C(=N\OC(=O)/C=C/c1ccccc1)c1nccs1`, the inhibition at Serine hydrolase RBBP9 [1] was determined as 42%.

Values taken from ChEMBL document CHEMBL1156321, “Oxime esters as selective, covalent inhibitors of the serine hydrolase retinoblastoma-binding protein 9 (RBBP9)” (Bioorg Med Chem Lett, 2010).
